From PubChem BioAssay (NCI)
Several values for one entry are separate records, joined by “and”; a condition that tells them apart may be missing. Equal values may be shown once.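 Each compound was tested at five concentrations against cells in 96-well plates for 48 hours. The concentration for 50% growth inhibition is given as GI50. Definition used: TGI = concentration required for complete inhibition of growth.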

Experiments:
Test in all cases: growth of human tumour cells (NCI), 48 h
[1] = tested on: A498 renal
[2] = tested on: COLO 205 colon
[3] = tested on: DU-145 prostate
[4] = tested on: MALME-3M melanoma
[5] = tested on: MOLT-4 leukemia
[6] = tested on: NCI-H226 lung
[7] = tested on: PC-3 prostate
[8] = tested on: SK-MEL-2 melanoma
[9] = tested on: SK-MEL-5 melanoma
[10] = tested on: SN12C renal

SMILES	TGI [1]	TGI [2]	TGI [3]	TGI [4]	TGI [5]	TGI [6]	TGI [7]	TGI [8]	TGI [9]	TGI [10]	GI50 [1]	GI50 [2]	GI50 [3]	GI50 [4]	GI50 [5]	GI50 [6]	GI50 [7]	GI50 [9]	GI50 [10]	GI50 [8]
COc1ccc(OC)c(-c2cc(C(=O)O)c3cc4ccccc4cc3n2)c1	> 100 µM	> 100 µM	> 100 µM	> 100 µM	> 100 µM	> 100 µM	> 100 µM	> 100 µM	> 100 µM	> 100 µM	–	–	–	–	–	–	–	–	–	–
O=C1CCCC(=O)C1C(=O)c1ccc(C(F)(F)F)cc1[N+](=O)[O-]	> 100 µM	> 100 µM	> 100 µM	> 100 µM	> 100 µM	> 100 µM	> 100 µM	–	> 100 µM	> 100 µM	> 100 µM	> 100 µM	> 100 µM	> 100 µM	> 100 µM	> 100 µM	> 100 µM	> 100 µM	> 100 µM	–
CN1CCN(CCCOc2ccc3nc(Nc4ccc(C(F)(F)F)c(Cl)c4)ccc3c2)CC1	2.54 µM	3.49 µM	3.09 µM	–	3.91 µM	–	3.56 µM	4.46 µM	3.18 µM	–	0.932 µM	1.7 µM	1.58 µM	–	1.63 µM	–	1.68 µM	1.7 µM	–	2.44 µM
O=C1C(Cl)=C(Nc2ccccn2)C(=O)c2ccccc21	25.6 µM	11.4 µM	3.39 µM	3.65 µM	6.6 µM	5.49 µM	8.35 µM	6.66 µM	3.03 µM	5.17 µM	12.9 µM	3.23 µM	1.94 µM	1.81 µM	2.79 µM	1.92 µM	2.27 µM	1.65 µM	2.33 µM	3.05 µM
CC(=O)OC1CC(C)c2c(Cl)ncnc21 (stereo not drawn)	> 100 µM	> 100 µM	> 100 µM	> 100 µM	> 100 µM	> 100 µM	> 100 µM	> 100 µM	> 100 µM	> 100 µM	> 100 µM	> 100 µM	> 100 µM	> 100 µM	> 100 µM	> 100 µM	> 100 µM	> 100 µM	> 100 µM	> 100 µM
Cc1ccc(C(CC(=O)c2ccccc2)C(C(=O)c2ccccc2)C(c2ccc(C)cc2)C2C(=O)NC(=S)NC2=O)cc1 (stereo not drawn)	> 50 µM	24.5 µM	> 50 µM	> 50 µM	> 50 µM	> 50 µM	> 50 µM	> 50 µM	> 50 µM	> 50 µM	18.3 µM	8.45 µM	18.5 µM	15.1 µM	8.85 µM	14.9 µM	10.4 µM	10.6 µM	25.1 µM	7.96 µM
COc1ccc(CCN2COc3ccc4ccc(=O)oc4c3C2)cc1OC	> 100 µM	> 100 µM	> 100 µM	> 100 µM	> 100 µM	> 100 µM	> 100 µM	> 100 µM	> 100 µM	> 100 µM	–	–	–	–	–	–	–	–	–	–
CN1CCN(CCCN2c3ccccc3Sc3ccc(C(F)(F)F)cc32)CC1	12.9 µM and 29.5 µM and 26.7 µM	3.15 µM and 3.65 µM and 9.3 µM	5.48 µM and 23.3 µM and 30.1 µM	3.28 µM and 3.66 µM and 6.98 µM	4.92 µM and 10.8 µM and 20.6 µM	6.41 µM and 32.8 µM and 32.2 µM	8.42 µM and 16.8 µM and 17.5 µM	4.26 µM and 15.4 µM and 15.6 µM	3.04 µM and 4.34 µM and 6.17 µM	12.8 µM and 22.2 µM and 26.1 µM	2.4 µM	1.64 µM and 1.8 µM and 3.87 µM	2.39 µM	1.69 µM	2.35 µM	2.16 µM	2.31 µM	1.65 µM	2.6 µM	2.34 µM
O=C(NCc1cccs1)OC1CC2CCC1C2 (stereo not drawn)	> 100 µM	> 100 µM	> 100 µM	> 100 µM	> 100 µM	> 100 µM	> 100 µM	> 100 µM	> 100 µM	> 100 µM	–	–	–	–	–	–	–	–	–	–
C=C(CN(C)C)C(=O)c1ccc(OC)cc1	25.6 µM	1.39 µM	10.7 µM	3.5 µM	2.06 µM	29.4 µM	28.5 µM	13.2 µM	18 µM	7.1 µM	–	–	–	–	–	–	–	–	–	–
O=[N+]([O-])c1ccc(NN=C2c3ccccc3Cc3ccccc32)c([N+](=O)[O-])c1	> 100 µM	> 100 µM	> 100 µM	> 100 µM	> 100 µM	> 100 µM	> 100 µM	> 43.4 µM	> 100 µM	> 100 µM	–	–	–	–	–	–	–	–	–	–
CC(=O)Nc1ccc(S(=O)(=O)c2ccc(NC(C)=O)cc2)cc1	> 100 µM	> 100 µM	> 100 µM	> 100 µM	> 100 µM	> 100 µM	> 100 µM	> 100 µM	> 100 µM	> 100 µM	81.4 µM	> 100 µM	> 100 µM	34.5 µM	> 100 µM	> 100 µM	> 100 µM	> 100 µM	> 100 µM	> 100 µM
[O]=[W](=[O])([OH])[OH]	> 100 µM	> 100 µM	> 100 µM	> 100 µM	> 100 µM	> 100 µM	> 100 µM	> 100 µM	> 100 µM	> 100 µM	> 100 µM	> 100 µM	> 100 µM	> 100 µM	> 100 µM	> 100 µM	> 100 µM	> 100 µM	> 100 µM	> 100 µM
CCCN(CCC)c1ccc(/C=N/NC(=O)c2cccnc2)cc1	22.3 µM	> 100 µM	> 100 µM	> 100 µM	> 100 µM	> 100 µM	> 100 µM	–	42 µM	> 100 µM	10.2 µM	31.5 µM	36.1 µM	41.8 µM	31 µM	47.6 µM	29.5 µM	18.2 µM	40.4 µM	–
Nc1ncnc2c1c(C(=O)NO)cn2C1OC(CO)C(O)C1O (stereo not drawn)	6.9 µM	1.55 µM	–	3.11 µM	1.66 µM	5.51 µM	> 41.9 µM	1.92 µM	2.15 µM	1.24 µM	0.915 µM	0.279 µM	0.224 µM	0.388 µM	0.306 µM	0.6 µM	0.286 µM	0.739 µM	0.244 µM	0.333 µM
O=C1c2ccccc2CCC1(Br)Br	20.9 µM	2.06 µM	12 µM	2.75 µM	3.94 µM	4.56 µM	16.9 µM	11.3 µM	5.87 µM	5.37 µM	7.69 µM	0.671 µM	3.73 µM	1.06 µM	0.631 µM	1.98 µM	4.14 µM	2.32 µM	2.18 µM	3.13 µM
O=C(Nc1ccc(Cl)cc1F)c1cc(Cl)ccc1O	0.924 µM	5.92 µM	> 42.8 µM	1.17 µM	3.99 µM	7.21 µM	5.64 µM	1.72 µM	0.529 µM	3.95 µM	0.26 µM	2.41 µM	0.915 µM	0.256 µM	1.14 µM	0.429 µM	1.28 µM	0.209 µM	0.345 µM	0.338 µM
COc1ccc(NC(=O)CC(=O)n2nc(-c3ccccc3)c(N=Nc3ccccc3C)c2-c2ccccc2)cc1	52.6 µM	99.8 µM	> 100 µM	81.9 µM	> 100 µM	63.7 µM	32.8 µM	56.9 µM	> 86.5 µM	> 88.5 µM	–	–	–	–	–	–	–	–	–	–
C(=C\c1nc2ccccc2s1)/c1ccc(N2CCOCC2)s1	> 100 µM	> 100 µM	> 100 µM	> 100 µM	> 100 µM	> 100 µM	> 100 µM	> 100 µM	> 100 µM	> 100 µM	> 100 µM	> 100 µM	48.8 µM	72 µM	> 100 µM	43.3 µM	33.7 µM	21.8 µM	43.3 µM	63.8 µM
CS(=O)(=O)c1ccc(-c2[nH]c3ccc(F)cc3c2/C=N/NC(N)=S)cc1	5.18 µM	5.14 µM	> 100 µM	41 µM	24 µM	> 100 µM	26.8 µM	> 100 µM	11.9 µM	> 100 µM	0.347 µM	1.47 µM	2.24 µM	7.83 µM	0.981 µM	3.28 µM	0.51 µM	0.634 µM	3.14 µM	10.6 µM
Cc1cccc2c1NC(=O)C2(c1ccc(O)cc1)c1ccc(O)cc1	25.1 µM	11.1 µM	55.4 µM	55.5 µM	75 µM	59 µM	> 62 µM	37.8 µM	33.2 µM	15.4 µM	0.559 µM	0.0135 µM	15.3 µM	17.8 µM	11.8 µM	18 µM	0.0497 µM	15.9 µM	< 0.01 µM	15.7 µM
CNc1ccc(C(=O)CC(O)CCC(C)C2OC(=O)CC(O)CC(=O)CC(O)CC(O)CC(O)CC(O)CC3(O)CC(O)C(C(=O)NCCc4ccccn4)C(CC(OC4OC(C)C(O)C(N)C4O)/C=C/C=C/C=C/C=C\C=C/C=C/C=C/C2C)O3)cc1 (stereo not drawn)	0.464 µM	> 50 µM	0.672 µM	0.144 µM	> 50 µM	9.71 µM	> 11.6 µM	> 50 µM	0.447 µM	2.09 µM	0.136 µM	1.63 µM	0.183 µM	0.0398 µM	0.207 µM	2.29 µM	0.336 µM	0.157 µM	0.961 µM	–
O=C(Nc1ccc(O)c(NS(=O)(=O)c2ccc(F)cc2)c1)c1ccc(-c2ccccc2)cc1	26.7 µM	31.2 µM	26.3 µM	23.9 µM	11 µM	23.8 µM	16.7 µM	46.2 µM	19.3 µM	21.7 µM	13.4 µM	15.6 µM	11.7 µM	11.5 µM	2.58 µM	4.96 µM	3.84 µM	6.42 µM	9.79 µM	15.1 µM
Cc1[nH]c2ccccc2c1C1=CC(=O)C=CC1=O	40 µM	5.43 µM	26.8 µM	27.8 µM	–	30.9 µM	30 µM	28.9 µM	25.3 µM	32 µM	14.5 µM	2.48 µM	13.4 µM	7.45 µM	–	15.6 µM	12.7 µM	12 µM	14.4 µM	12.3 µM
O=C(OC(CNc1c(C(=O)c2ccccc2)c(=O)n(Cc2ccccc2)c(=O)n1Cc1ccccc1)CN1CCCCC1)c1ccccc1 (stereo not drawn)	76.5 µM	47.8 µM	80.9 µM	40.7 µM	–	> 100 µM	26.4 µM	34.8 µM	42.5 µM	36.9 µM	32.3 µM	19.6 µM	29.3 µM	18.5 µM	–	67.2 µM	13.1 µM	18.2 µM	19.3 µM	19.1 µM
COc1ccc(C(=O)c2cc(OC)c(OC)c(OC)c2)cc1/C=C/C(=O)c1ccc2c(c1)OCO2	16.7 µM	> 100 µM	> 100 µM	6.61 µM	> 100 µM	6.32 µM	> 100 µM	7.47 µM	–	> 100 µM	2.43 µM	3.51 µM	4.25 µM	2.38 µM	1.61 µM	2.23 µM	4.1 µM	–	3.07 µM	2.81 µM
O=C(c1ccncc1)N1CCN(C2=NS(=O)(=O)c3ccccc3N2c2ccccc2)CC1	36.9 µM	> 100 µM	> 100 µM	51.8 µM	–	42.4 µM	> 100 µM	65.7 µM	24.1 µM	> 100 µM	19.7 µM	30.3 µM	7.77 µM	23.6 µM	–	17.1 µM	22.2 µM	11.6 µM	7.55 µM	28 µM
COc1cc([N+](=O)[O-])c(OC)cc1-c1nc2n(c1/C(N)=N/C(=N)N)CCS2	> 100 µM	> 100 µM	> 100 µM	60.6 µM	> 100 µM	> 100 µM	> 100 µM	–	> 100 µM	> 100 µM	> 100 µM	> 100 µM	50.4 µM	18.7 µM	> 100 µM	> 100 µM	> 100 µM	75.3 µM	> 100 µM	–
